# Data taken from patent US20240409746A1, “AZO IRON COMPLEX DYE, INK COMPOSITION CONTAINING SAME, AND METHOD FOR PRODUCING AZO IRON COMPLEX DYE” (ORIENT CHEMICAL INDUSTRIES CO., LTD., priority 2021, published 2024).
# Key:
# Assay type in all cases: physicochemical
# [1] = Solubility evaluation (maximum concentration with no insoluble substances on the membrane filter); conditions: for Maximum concentration (%) Ethanol / Maximum concentration (%) Methyl ethyl ketone: tested at 5%, 10%, 15% and 20%, ultrasonically dispersed 10 minutes, 1 μm PTFE membrane filter
# Text: (§1) Then the azo iron complex dyes solutions were filtered through a membrane filter (pore size 1 μm, PTFE) under reduced pressure, and the maximum concentrations of the azo iron complex dyes were defined as the concentrations at which it was confirmed that there were no insoluble substances on the membrane filter. Then the hue of the methyl ethyl ketone solution with the azo iron complex dyes concentrations of 5% was visually observed.
# [2] = Visual observation of hue of 5% solution of the azo iron complex dye; conditions: for Hue of 5% methyl ethyl ketone solution with azo iron complex dye: 5% in methyl ethyl ketone, visually observed
# Method: A solution of the azo iron complex dye A-1 in methyl ethyl ketone was prepared at a concentration of 10 mg/1000 ml (10 ppm). The absorbance of this solution was measured using an ultraviolet-visible spectrophotometer (available from Shimadzu Corporation; trade name UV-1700).
# as §1
# [3] = Electrical conductivity measurement; conditions: 6% solution in methyl ethyl ketone
# Text: The azo iron complex dye of the present invention can be suitably used in the ink composition for a CIJ printer. Herein, the electrical conductivity K of the azo iron complex dye is preferably 300-2200 μS/cm, and more preferably 600-2000 μS/cm. As long as the electrical conductivity is within this range, the charge of the ink composition for a CIJ printer containing the azo iron complex dye can be stably and freely controlled, so that the ejection stability of the ink composition can be improved. Note that the electrical conductivity K is measured by inserting and immersing an electrode of an electrical conductivity meter in a 6 mass % methyl ethyl ketone solution of the azo iron complex dye.
# A 6% solution of the azo iron complex dye A-1 in methyl ethyl ketone was prepared and measured using an electrical conductivity meter (available from Eutech Instruments Pte, Ltd.; trade name CyberScan CON100). As a result, the electrical conductivity K was 1530 μS/cm. Furthermore, a 6% solution of the azo iron complex dye A-1 in methyl ethyl ketone was prepared and measured using a conductivity meter (available from Knick Co., Ltd.; trade name Conducell 4USF-PG120). As a result, the electrical conductivity K was […].
# [4] = Dissolution stability of dye solution on standing
Compound,Maximum concentration (%) Ethanol [1] [%],Solubility in both methyl ethyl ketone and ethanol (in words) [1],Maximum concentration (%) Methyl ethyl ketone [1] [%],Hue of 5% methyl ethyl ketone solution with azo iron complex dye [2],Color of solution adjusted to a concentration of 5% [2],Electrical conductivity K immediately after dissolution ([3]; immediately after dissolution) [μS/cm],"Dissolution stability, left overnight ([4]; 5% solution, left overnight (8 hours))",Dissolution stability in ethanol ([4]; ethanol solution allowed to stand for 10 minutes),Electrical conductivity K ([3]; CyberScan CON100) [μS/cm]
CCCCN(CCCC)c1ccc2c(c1)[O][Fe]1([O]c3cc(N(CCCC)CCCC)ccc3N=Nc3cc(C)c(N=Nc4ccc(C#N)cc4)cc3[O]1)[O]c1cc(N=Nc3ccc(C#N)cc3)c(C)cc1N=N2 (centres unmarked) [B-2],<5,low solubility,5,black color within a practical range,sufficient black color,165,precipitation was observed,precipitate was confirmed,
O=[N+]([O-])c1ccc2c(c1)[O][Fe]1([O]c3cc([N+](=O)[O-])ccc3N=Nc3c(ccc4ccccc34)[O]1)[O]c1ccc3ccccc3c1N=N2 (centres unmarked) [B-1],5,good solubility,10,reddish brown hue,dark brown color,,,,1450
